Test results from patent US8019412B2, “Apparatus for facilitating transdermal delivery of therapeutic substances and method of transdermally delivering therapeutic substances” (International Scientific Pty Ltd., priority 2003, dated 2011).

System: excised human epidermal membranes
Format: in vitro ADME
Source text: In an experimental example, penetration of caffeine through excised human epidermal membranes was investigated using Franz-type diffusion cells and standard procedures. An electromagnetic field pattern was created and the penetration results compared with passive diffusion. The electromagnetic field pattern used was generated by applying an energisation signal having 12 pulses at a repeating frequency of 10 Hz to a coil Each of the pulses has a duration of approximately 360 μs. A phosphate buffered saline receptor solution was used and the amount of caffeine in the receptor solution determined by HPLC with UV detection at regular time intervals up to 6 hours post application of the electromagnetic field. In this example, the electromagnetic field pattern was applied for approximately 30 minutes.
Similar experiments were carried out with electromagnetic fields generated by applying an energisation signal having 15 pulses of 360 μs duration at a repeating frequency of 20 Hz to a coil, and by applying an energisation signal having 255 pulses at a repeating frequency of 2 Hz to a coil. These experiments yielded caffeine flux values of 7.20 μgcm^−2h^−1 and 8.51 μgcm^−2h^−1, although the latter of these experiments produced an effect only after 60 minutes.
A further experiment was carried out by applying an energisation signal having a single quasi-rectangular pulse repeated at 72 Hz to a coil.

Structure (SMILES): Cn1c(=O)c2c(ncn2C)n(C)c1=O [caffeine]
- caffeine flux associated with passive diffusion: ~4.1 μgcm^−2h^−1
- highest caffeine flux achieved with electromagnetic field pattern: 19.24 μgcm^−2h^−1
- time after which an effect was produced: ≥ 60 min
